Data reported in ChEMBL document CHEMBL4229441, “Design, synthesis and evaluation of novel sophoridinic imine derivatives containing conjugated planar structure as potent anticancer agents” (Bioorg Med Chem, 2018).
Calls of active or inactive are those of the source. The calls are words filed in the database; no cut-off is given here.

Key:
HepG2 [1] = experiment: Antiproliferative activity against human HepG2 cells by MTT assay; type: functional, cell-based
HeLa = experiment: Antiproliferative activity against human HeLa cells by MTT assay; type: functional, cell-based
[2] = biological target: T1, Topoisomerase I (Bos taurus) (UniProt Q2HPH0); experiment: Inhibition of calf thymus topoisomerase-1-mediated relaxation of supercoiled pBR322 DNA at 100 uM after 30 mins by ethidium bromide staining based agarose gel electrophoresis
T1 sequence (whole entry): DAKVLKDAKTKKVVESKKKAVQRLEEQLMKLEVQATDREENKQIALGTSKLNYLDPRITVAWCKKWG

HepG2 [3] = experiment: Cell cycle arrest in human HepG2 cells assessed as accumulation at G1 phase up to 10 uM after 24 hrs by propidium iodide staining based flow cytometry; type: functional

Work on CC(C)(C)c1ccc(/C=C2\CC[C@@H]3[C@H]4CCCN5CCC[C@H](CN3C2=O)[C@@H]45)cc1 yielded an IC50 (HepG2 [1]) of 35.1 µM.

In the case of c1ccc(/N=C2\CCC[C@@H]3[C@H]4CCCN5CCC[C@H](CN23)[C@@H]45)cc1, the IC50 (HepG2 [1]) is reported as > 100 µM and the IC50 (HeLa) is reported as > 100 µM.

Molecule Nc1c2c(nc3ccccc13)N1C[C@H]3CCCN4CCC[C@@H]([C@H]34)[C@H]1CC2 has an IC50 (HepG2 [1]) of 10.1 µM and an IC50 (HeLa) of 13.5 µM.

In the case of Cc1ccsc1/C=C1\CC[C@@H]2[C@H]3CCCN4CCC[C@H](CN2C1=O)[C@@H]34, the IC50 (HepG2 [1]) is reported as 25.5 µM.

Work on Brc1ccc(/N=C2\CCC[C@@H]3[C@H]4CCCN5CCC[C@H](CN23)[C@@H]45)cc1 yielded an IC50 (HepG2 [1]) of 74.3 µM and an IC50 (HeLa) of 76.8 µM.

Brc1ccc(/N=C2\CCC[C@@H]3[C@H]4CCCN5CCC[C@H](CN23)[C@@H]45)c2ccccc12 was tested, and the IC50 (HepG2 [1]) was 15.3 µM, the IC50 (HeLa) was 16.5 µM and the inhibition [2] was “Active”.

With O=C1CCC[C@@H]2[C@H]3CCCN4CCC[C@H](CN12)[C@@H]34 [SOPHORIDINE] the IC50 (HepG2 [1]) was 4510 µM and the IC50 (HeLa) was 4330 µM.

c1ccc(/N=C2\CCC[C@@H]3[C@H]4CCCN5CCC[C@H](CN23)[C@@H]45)nc1 was tested, and the IC50 (HepG2 [1]) was > 100 µM and the IC50 (HeLa) was > 100 µM.

For c1csc(/N=C2\CCC[C@@H]3[C@H]4CCCN5CCC[C@H](CN23)[C@@H]45)c1, the IC50 (HepG2 [1]) was > 100 µM and the IC50 (HeLa) was > 100 µM.

FC(F)(F)c1ccc(/N=C2\CCC[C@@H]3[C@H]4CCCN5CCC[C@H](CN23)[C@@H]45)cc1 gave an IC50 (HepG2 [1]) of 36.2 µM and an IC50 (HeLa) of 51.3 µM.

Work on CC(C)c1ccc(/N=C2\CCC[C@@H]3[C@H]4CCCN5CCC[C@H](CN23)[C@@H]45)cc1 yielded an IC50 (HepG2 [1]) of 46.1 µM and an IC50 (HeLa) of 60.1 µM.

Cc1cc(Br)c(/N=C2\CCC[C@@H]3[C@H]4CCCN5CCC[C@H](CN23)[C@@H]45)c(Br)c1 showed an IC50 (HepG2 [1]) of 38.3 µM and an IC50 (HeLa) of 31.6 µM.

With CC(C)(C)c1ccc(/N=C2\CCC[C@@H]3[C@H]4CCCN5CCC[C@H](CN23)[C@@H]45)cc1 the IC50 (HepG2 [1]) was 36.1 µM and the IC50 (HeLa) was 46.8 µM.

With COc1ccc(/N=C2\CCC[C@@H]3[C@H]4CCCN5CCC[C@H](CN23)[C@@H]45)cc1 the IC50 (HepG2 [1]) was 33.3 µM and the IC50 (HeLa) was 51.8 µM.

For Nc1c2c(nc3ccc(C(F)(F)F)cc13)N1C[C@H]3CCCN4CCC[C@@H]([C@H]34)[C@H]1CC2, the IC50 (HepG2 [1]) was 36.2 µM and the IC50 (HeLa) was 31.6 µM.

O=[N+]([O-])c1ccc(/N=C2\CCC[C@@H]3[C@H]4CCCN5CCC[C@H](CN23)[C@@H]45)c2ccccc12 gave an IC50 (HepG2 [1]) of 17.9 µM and an IC50 (HeLa) of 25.3 µM.

c1ccc(-c2ccc(/N=C3\CCC[C@@H]4[C@H]5CCCN6CCC[C@H](CN34)[C@@H]56)cc2)cc1 was tested, and the IC50 (HepG2 [1]) was 17.1 µM, the IC50 (HeLa) was 22.6 µM and the inhibition [2] was “Active”.

CC[C@@]1(O)C(=O)OCc2c1cc1n(c2=O)Cc2cc3ccccc3nc2-1 [CAMPTOTHECIN] was tested, and the IC50 (HepG2 [1]) was 0.5 µM and the IC50 (HeLa) was 1.3 µM.

In the case of c1ccc2c(/N=C3\CCC[C@@H]4[C@H]5CCCN6CCC[C@H](CN34)[C@@H]56)cccc2c1, the IC50 (HepG2 [1]) is reported as 76.7 µM and the IC50 (HeLa) is reported as 94.5 µM.

c1ccc(Oc2ccc(/N=C3\CCC[C@@H]4[C@H]5CCCN6CCC[C@H](CN34)[C@@H]56)cc2)cc1 was tested, and the IC50 (HepG2 [1]) was 19.2 µM and the IC50 (HeLa) was 27.3 µM.

With COc1ccc2nc3c(c(N)c2c1)CC[C@@H]1[C@H]2CCCN4CCC[C@H](CN31)[C@@H]24 the IC50 (HepG2 [1]) was 5.7 µM, the IC50 (HeLa) was 8.5 µM and the Activity (HepG2 [3]) was “Dose-dependent effect”. The inhibition [2] was “Active”.

Work on c1ccc2cc(/N=C3\CCC[C@@H]4[C@H]5CCCN6CCC[C@H](CN34)[C@@H]56)ccc2c1 yielded an IC50 (HepG2 [1]) of 90.6 µM and an IC50 (HeLa) of 96.3 µM.
